Earlier results in patent US4866036A, “Dipeptidyl 5-0,6-0-acyl-2-amino-2-deoxy-D-glucofuranose compositions and methods of use in aids-immunocompromised human hosts” (priority 1987, dated 1989).

Tests used:
[1] = human, in vivo
[2] = human, in vivo; remark: listed apart in the source
[3] = test system: HIV
[4] = test system: reverse transcriptase in several retroviruses; conditions: in vitro
[5] = biological target: HIV reverse transcriptase (Human immunodeficiency virus type 1 group M subtype B, UniProt P04585)
[6] = in vivo

| Compound | clinical effect in AIDS or ARC patients [1] | toxicity / adverse effects in patients [2] | other results |
| --- | --- | --- | --- |
| CO[C@H]1/C=C/O[C@@]2(C)Oc3c(C)c(O)c4c(c3C2=O)C2=NC3(CCN(CC(C)C)CC3)NC2=C(NC(=O)/C(C)=C\C=C\[C@H](C)[C@H](O)[C@@H](C)[C@@H](O)[C@@H](C)[C@H](OC(C)=O)[C@@H]1C)C4=O [Ansamycin, rifabutin] | some efficacy | – | – |
| CC(C)(N1CC1C#N)N1CC1C(N)=O (centres unmarked) [Azimexon] | improvements in symptoms and immune function in patients with ARC but not AIDS | mild hemolysis | – |
| CC(C)(S)[C@@H](N)C(=O)O [D-Penicillamine, 3-mercapto-D-valine] | suppressed the virus | temporarily depressed T cell levels | – |
| ammonium 21-tungsto-9 antimoniate [HPA 23] | no therapeutic benefit has been documented | – | growth of HIV [3]: some tendency to check the growth of HIV; reverse transcriptase in several retroviruses [4]: Inhibits reverse transcriptase |
| α-Interferon | induced tumor regression in some AIDS related Kaposi's sarcoma cases | – | growth of HIV [3]: Checks the growth of HIV in vitro |
| CC(=O)Nc1ccc(C(=O)O)cc1.CC(=O)Nc1ccc(C(=O)O)cc1.CC(=O)Nc1ccc(C(=O)O)cc1.CC(O)CN(C)C.CC(O)CN(C)C.CC(O)CN(C)C.O=c1[nH]cnc2c1ncn2[C@@H]1O[C@H](CO)[C@@H](O)[C@H]1O [Inosine pranobex] | improve immune function in ARC patients | – | – |
| Cc1ccc(C(=O)Nc2ccc(S(=O)(=O)O)c3cc(S(=O)(=O)O)cc(S(=O)(=O)O)c23)cc1NC(=O)c1cccc(NC(=O)Nc2cccc(C(=O)Nc3cc(C(=O)Nc4ccc(S(=O)(=O)O)c5cc(S(=O)(=O)O)cc(S(=O)(=O)O)c45)ccc3C)c2)c1 [Suramin] | – | – | HIV reverse transcriptase activity [5]: Potent inhibitor |
| NC(=O)c1ncn([C@@H]2O[C@H](CO)[C@@H](O)[C@H]2O)n1 [Ribavirin, 1β-D ribofuranosyl 1,2,4-triazole 3-carboxamide] | inhibited viral replication and improved immune function | – | – |
| O=C(O)P(=O)(O)O [Foscarnet, trisodium phosphonoformate] | – | serious side effects | HIV reverse transcriptase activity [5]: Inhibits HIV reverse transcriptase activity in vitro |
| Cc1cn([C@H]2C[C@H](N=[N+]=[N-])[C@@H](CO)O2)c(=O)[nH]c1=O [Azidothymidine, 3'-azido 3'-deoxythymidine] | – | – | half-life in the body [6]: relatively short half-life; penetration of the central nervous system [6]: effectively penetrates central nervous system |
